Test results taken from patent publication US9682980B2, “Positive allosteric modulators of mGluR2” (BRISTOL-MYERS SQUIBB COMPANY, priority 2012, dated 2017).
pEC50: −log10 of the molar value.

target: human mGluR2 (Homo sapiens (Human), UniProt Q14416); experiment: MGluR2 cAMP assay; type: cell-based; details: HEK293 cells clonally expressing human mGluR2, 1 μM forskolin, 1 μM LY-341495
Experimental: Clonally expressed human mGluR2 in HEK293 background was glutamate starved overnight in media without glutamine (GIBCO MEM 12360), containing 10% FBS, 1% penicillin streptomycin.
On the day of the assay, media was removed, cells washed with PBS, cells harvested and pelleted by centrifugation. Cell pellets were resuspended in stimulation buffer without forskolin and counted. A solution of 1.25×10^6 cells/ml was prepared and dispensed to plates using a Combi liquid handler (Thermo). A standard curve was created using a top concentration of cAMP of 1 μM in the stimulation buffer, 1:3 dilutions over 14 points in the absence of cells. Plates were read by time-resolved fluorescence at […] and a ratio was calculated via in house software, (665 nM/618 nM)*10^4. In house software converted the fluorescence value ratios to units of cAMP concentration, which is then used to calculate % inhibition for each test compound.
Compounds were added to white, standard volume 384 non-binding surface plates (Corning 3574). Cells were resuspended in stimulation buffer consisting of Hanks Balanced Salt Solution (14175-095) pH 7.0, 20 mM HEPES, 2.0 mM CaCl2, 5.0 mM MgCl2, and 1 mM IBMX (Sigma 15879), 1 μM forskolin, and 1 μM LY-341495, for 30 minutes. Buffer without forskolin was used as a negative control. Solutions of D2 and cryptate detection reagents from the CISBIO dynamic cAMP kit (62AM4PEJ) were diluted 1:40 in lysis buffer. Lysis buffer consisted of 50 mM Phosphate Buffer pH 7.0, 800 mM Potassium Fluoride, 0.2% BSA, and 1.0% Triton. Assay reaction was terminated by addition of detection reagents in lysis buffer. One hour later, plates were read on a PE Viewlux. Data was extracted, and concentration response curves generated by fitting the data to a standard 4 parameter logistic equation from which EC50 values were determined See table 1: A: <10 nM; B: 10-100 nM; C: 100-1000 nM; D: 1000-10000 nM.

human mGluR2, sequence (Q14416 19-872): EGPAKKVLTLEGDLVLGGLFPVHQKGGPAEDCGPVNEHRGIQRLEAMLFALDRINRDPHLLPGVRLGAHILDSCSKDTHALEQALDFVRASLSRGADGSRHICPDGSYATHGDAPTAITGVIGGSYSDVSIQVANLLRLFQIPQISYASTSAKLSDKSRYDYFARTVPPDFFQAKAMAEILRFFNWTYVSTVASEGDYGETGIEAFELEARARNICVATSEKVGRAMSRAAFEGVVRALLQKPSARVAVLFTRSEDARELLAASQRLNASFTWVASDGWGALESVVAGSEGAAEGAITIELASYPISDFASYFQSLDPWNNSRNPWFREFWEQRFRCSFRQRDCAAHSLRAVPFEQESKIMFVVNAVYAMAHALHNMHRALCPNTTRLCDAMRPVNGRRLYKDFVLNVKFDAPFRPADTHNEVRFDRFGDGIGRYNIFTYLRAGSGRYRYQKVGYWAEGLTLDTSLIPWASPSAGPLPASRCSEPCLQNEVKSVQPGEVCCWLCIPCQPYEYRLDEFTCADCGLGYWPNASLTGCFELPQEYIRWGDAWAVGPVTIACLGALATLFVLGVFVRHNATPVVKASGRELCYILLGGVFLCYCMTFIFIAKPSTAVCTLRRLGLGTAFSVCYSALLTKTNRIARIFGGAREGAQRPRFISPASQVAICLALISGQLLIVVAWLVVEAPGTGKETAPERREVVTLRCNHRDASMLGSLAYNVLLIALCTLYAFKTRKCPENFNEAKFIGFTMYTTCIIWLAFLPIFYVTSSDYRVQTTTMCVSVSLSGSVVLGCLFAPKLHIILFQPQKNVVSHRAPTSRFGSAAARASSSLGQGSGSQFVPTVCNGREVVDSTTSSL

SMILES	pEC50
Clc1c(NCC2Cc3ccccc3C2)cnn2c(CC3CC3)nnc12 [Example 33, 8-Chloro-3-(cyclopropylmethyl)-N-((2,3-dihydro-1H-inden-2-yl)methyl)-[1,2,4]triazolo[4,3-b]pyridazin-7-amine]	7.68
COc1cccc(F)c1C1CCN(c2cc3nnc(CC4CC4)n3cn2)CC1 [Example 34, 3-(Cyclopropylmethyl)-7-(4-(2-fluoro-6-methoxyphenyl)piperidin-1-yl)-[1,2,4]triazolo[4,3-c]pyrimidine]	6.19
COc1cccc(F)c1C1CC1CNc1cnn2c(CC3CC3)nnc2c1Cl (centres unmarked) [Example 39, 8-Chloro-3-(cyclopropylmethyl)-N-((2-(2-fluoro-6-methoxyphenyl)cyclopropyl)methyl)-[1,2,4]triazolo[4,3-b]pyridazin-7-amine]	7.55
COc1cccc(F)c1C1CC1CNc1cnn2c(CC(F)(F)F)nnc2c1Cl (centres unmarked) [Example 40, 8-Chloro-N-((2-(2-fluoro-6-methoxyphenyl)cyclopropyl)methyl)-3-(2,2,2-trifluoroethyl)-[1,2,4]triazolo[4,3-b]pyridazin-7-amine]	7.51
Clc1c(N2CCC(c3ccncc3)CC2)cnn2c(CC3CC3)nnc12 [Example 41, 8-Chloro-3-(cyclopropylmethyl)-7-(4-(pyridin-4-yl)piperidin-1-yl)-[1,2,4]triazolo[4,3-b]pyridazine]	6.56
Clc1ccccc1C1CCN(c2cnn3c(CC4CC4)nnc3c2Cl)CC1 [Example 44, 8-Chloro-7-(4-(2-chlorophenyl)piperidin-1-yl)-3-(cyclopropylmethyl)-[1,2,4]triazolo[4,3-b]pyridazine]	7.35

The remaining lines, values ahead:

pEC50	SMILES
7.82	COC(=O)c1ccccc1C1CCN(c2cnn3c(CC(F)(F)F)nnc3c2Cl)CC1 [Example 32, Methyl 2-(1-(8-chloro-3-(2,2,2-trifluoroethyl)-[1,2,4]triazolo[4,3-b]pyridazin-7-yl)piperidin-4-yl)benzoate]
8.22	COc1ccc(OC)c(C2CCN(c3cnn4c(CC5CC5)nnc4c3Cl)CC2)c1 [Example 35, 8-Chloro-3-(cyclopropylmethyl)-7-(4-(2,5-dimethoxyphenyl)piperidin-1-yl)-[1,2,4]triazolo[4,3-b]pyridazine]
8.15	COc1ccc(OC)c(C2CCN(c3cnn4c(CC(F)(F)F)nnc4c3Cl)CC2)c1 [Example 36, 8-Chloro-7-(4-(2,5-dimethoxyphenyl)piperidin-1-yl)-3-(2,2,2-trifluoroethyl)-[1,2,4]triazolo[4,3-b]pyridazine]
8.05	COc1ccc(C2CCN(c3cnn4c(CC5CC5)nnc4c3Cl)CC2)c(OC)c1 [Example 37, 8-Chloro-3-(cyclopropylmethyl)-7-(4-(2,4-dimethoxyphenyl)piperidin-1-yl)-[1,2,4]triazolo[4,3-b]pyridazine]
8.30	COc1ccc(C2CCN(c3cnn4c(CC(F)(F)F)nnc4c3Cl)CC2)c(OC)c1 [Example 38, 8-Chloro-7-(4-(2,4-dimethoxyphenyl)piperidin-1-yl)-3-(2,2,2-trifluoroethyl)-[1,2,4]triazolo[4,3-b]pyridazine]
7.96	COc1cc(OC)nc(C2CCN(c3cnn4c(CC5CC5)nnc4c3Cl)CC2)n1 [Example 42, 8-Chloro-3-(cyclopropylmethyl)-7-(4-(4,6-dimethoxypyrimidin-2-yl)piperidin-1-yl)-[1,2,4]triazolo[4,3-b]pyridazine]
8.00	COc1cc(OC)nc(C2CCN(c3cnn4c(CC(F)(F)F)nnc4c3Cl)CC2)n1 [Example 43, 8-Chloro-7-(4-(4,6-dimethoxypyrimidin-2-yl)piperidin-1-yl)-3-(2,2,2-trifluoroethyl)-[1,2,4]triazolo[4,3-b]pyridazine]
7.32	FC(F)(F)Cc1nnc2c(Cl)c(N3CCC(c4ccccc4Cl)CC3)cnn12 [Example 45, 8-Chloro-7-(4-(2-chlorophenyl)piperidin-1-yl)-3-(2,2,2-trifluoroethyl)-[1,2,4]triazolo[4,3-b]pyridazine]
